For 4 compounds, EC50, ED50 and CC50 results are on record in ChEMBL document CHEMBL3817808, “Enlarging the chemical space of anti-leishmanials: a structureactivity relationship study of peptoids against Leishmania mexicana, a causative agent of cutaneous leishmaniasis” (Medchemcomm, 2016).

Series [1] concerns Leishmania mexicana. Description: Antileishmanial activity against Leishmania mexicana MNYC/BZ/62/M379 promastigotes assessed as parasite viability measured after 1 hr by alamarBlue staining based fluorescence analysis. In kind it is functional. Particulars: MNYC/BZ/62/M379, 1 h, read-out: ED50 (the source's name).
In series [2] the test system is Leishmania mexicana. Description: Antileishmanial activity against axenic amastigote form of Leishmania mexicana MNYC/BZ/62/M379 assessed as parasite viability measured after 1 hr by alamarBlue staining based fluorescence analysis. In kind it is functional. To be noted: MNYC/BZ/62/M379, 1 h, read-out: ED50 (the source's name).
The test system of series [3] is Leishmania mexicana. As to the kind of experiment: Antileishmanial activity against Leishmania mexicana MNYC/BZ/62/M379 amastigotes infected in mouse RAW264.7 cells assessed as parasite viability measured after 24 hrs by alamarBlue staining based fluorescence analysis. The format is functional.
A short description of series [4]: Cytotoxicity against mouse RAW264.7 cells measured after 24 hrs by alamarBlue staining based fluorescence analysis. In kind it is cell-based. Particulars: read-out: ED50.

For the compound `CC(c1ccccc1)N(CC(=O)N(CCCCN)CC(=O)N(CC(=O)N(CC(=O)N(CCCCN)CC(=O)N(CC(=O)N(CC(N)=O)[C@@H](C)c1ccccc1)[C@@H](C)c1ccccc1)Cc1ccc(F)cc1)Cc1ccc(F)cc1)C(=O)CN(C(=O)CN(CCCCN)C(=O)CN(Cc1ccc(F)cc1)C(=O)CN(Cc1ccc(F)cc1)C(=O)CNCCCCN)[C@@H](C)c1ccccc1` (single isomer, unassigned), the EC50 in series [1] turned out to be 6 µM; in series [2] it was 21 µM. For the same compound, the ED50 in series [3] was over 5 µM. Further, the CC50 at 24 h in series [4] is 5 µM.
With `CCCCCNCC(=O)N(CC(=O)N(CC(=O)N(CCCCC)CC(=O)N(CC(=O)N(CC(=O)N(CCCCN)CC(=O)N(CC(=O)N(CC(=O)N(CCCCN)CC(=O)N(CC(=O)N(CC(N)=O)[C@@H](C)c1ccccc1)[C@@H](C)c1ccccc1)C(C)c1ccccc1)[C@@H](C)c1ccccc1)C(C)c1ccccc1)[C@@H](C)c1ccccc1)C(C)c1ccccc1)[C@@H](C)c1ccccc1` (single isomer, unassigned), the figures for the EC50 in series [1] and in series [2] were 11 µM and 16 µM, respectively. Besides, the ED50 in series [3] was found to be 1.6 µM. The CC50 at 24 h in series [4] came out at 1.7 µM.
On to `C[C@H](c1ccccc1)N(CC(=O)N(CCN)CC(=O)N(CC(=O)N(CC(=O)N(CCN)CC(=O)N(CC(=O)N(CC(=O)N(CCN)CC(=O)N(CC(=O)N(CC(N)=O)[C@@H](C)c1ccccc1)[C@@H](C)c1ccccc1)[C@H](C)c1ccccc1)[C@@H](C)c1ccccc1)[C@H](C)c1ccccc1)[C@@H](C)c1ccccc1)C(=O)CN(C(=O)CNCCN)[C@H](C)c1ccccc1` (stereo in doubt), for which the EC50 came to 7 µM in series [1] and 17 µM in series [2]. Moreover, the ED50 in series [3] was over 5 µM. In series [4], the CC50 at 24 h worked out at 3 µM.
As for `C[C@@H]1[C@H](O)[C@@H](C)/C=C/C=C/C=C/C=C/C=C/C=C/C=C/[C@H](O[C@@H]2O[C@H](C)[C@@H](O)[C@H](N)[C@@H]2O)C[C@@H]2O[C@](O)(C[C@@H](O)C[C@@H](O)[C@H](O)CC[C@@H](O)C[C@@H](O)CC(=O)O[C@H]1C)C[C@H](O)[C@H]2C(=O)O` [AMPHOTERICIN B], the EC50 in series [1] and in series [2] was under 2 µM throughout. Besides, the ED50 in series [3] stood at 0.195 µM. Moreover, in series [4], the CC50 at 24 h is over 5 µM.
